Measurements taken from patent publication US11999746B2, “Compounds” (GlaxoSmithKline Intellectual Property Development Limited, priority 2014, dated 2024).
Counter-ions that a name gives are not always drawn.

Experiments:
[1] = target: T1, recombinant human Lp-PLA2 (Homo sapiens, UniProt Q13093); test: (1b) hrThioPAF assay, recombinant human Lp-PLA2; format: biochemical; conditions: Examples 266-412 were tested here, one experiment or average of multiple experiments, read-out: rhLp-PLA2 (pIC50) (converted)
T1 sequence (Q13093 22-441): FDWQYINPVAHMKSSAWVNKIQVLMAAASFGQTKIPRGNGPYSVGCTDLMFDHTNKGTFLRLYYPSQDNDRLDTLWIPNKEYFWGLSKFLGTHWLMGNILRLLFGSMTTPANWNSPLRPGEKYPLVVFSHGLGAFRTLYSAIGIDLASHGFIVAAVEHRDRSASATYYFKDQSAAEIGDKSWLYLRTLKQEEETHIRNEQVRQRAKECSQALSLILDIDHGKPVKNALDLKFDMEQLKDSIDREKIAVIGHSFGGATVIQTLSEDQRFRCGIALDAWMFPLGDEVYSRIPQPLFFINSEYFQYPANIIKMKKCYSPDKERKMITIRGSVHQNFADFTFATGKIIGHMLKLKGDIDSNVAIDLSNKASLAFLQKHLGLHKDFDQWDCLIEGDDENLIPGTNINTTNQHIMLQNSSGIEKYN
Method in brief: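 Fluorogenic assay: 20 pM rhLp-PLA2 in 50 mM HEPES pH 7.4, 150 mM NaCl, 1 mM CHAPS with 1:3 serially diluted compounds; substrate mix of 40 μM 2-thio-PAF, 40 μM CPM, 400 μM NEM (pre-addition levels). 20 min at 25 °C in the dark; fluorescence ex 380/em 485 nm, pIC50 by curve fitting.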

Lp-PLA2 in human plasma = target: T2, Lp-PLA2 in human plasma (Homo sapiens, UniProt Q13093); test: (3b) Lp-PLA2 human plasma alternative Thio-PAF assay; format: biochemical; conditions: (3b) alternative Thio-PAF assay, pooled human plasma; Examples of 266-412 were tested here; read-out: pIC50 in the Lp-PLA2 human plasma assay (converted)
T2 construct: from tissue; host or cells: pooled human plasma
T2 sequence (Q13093 22-441): T1 sequence (Q13093 22-441)
Method in brief: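 Pooled human plasma was preincubated with compound for 15 min at RT. Substrate solution (2 mM 2-thio-PAF, 52 μM CPM, 2.5 mM NEM in 50 mM HEPES pH 7.4, 150 mM NaCl, 1 mM CHAPS; pre-addition concentrations) was added, and the reaction was quenched with 5% TFA after 3 min. Fluorescence was read at ex 380/em 485 nm and fitted to give pIC50.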

Compound | IC50 [1] [nM] | IC50 (Lp-PLA2 in human plasma) [nM]
CC(=O)N1CCN2c3cc(OCc4ccc(F)c(C#N)c4)nc(=O)n3CC2C1 (stereo not shown) [Example E281, 5-(((2-Acetyl-9-oxo-2,3,4,9,11,11a-hexahydro-1H-pyrazino[1′,2′:3,4]imidazo[1,2-c]pyrimidin-7-yl)oxy)methyl)-2-fluorobenzonitrile, trifluoroacetic Acid Salt] | ≤ 10000 | ≤ 100
Cc1ccc(Oc2c(F)cc(COc3cc4n(c(=O)n3)CC3(COC3)N4C)cc2F)cn1 [Example 400, 7-((3,5-Difluoro-4-((6-methylpyridin-3-yl)oxy)benzyl)oxy)-1-methyl-1H-spiro[imidazo[1,2-c]pyrimidine-2,3′-oxetan]-5(3H)-one] | ≤ 10000 | ≤ 100
O=c1nc(OCc2cc(F)c(Oc3cncc(C(F)(F)F)c3)c(F)c2)cc2n1CC1(CCOCC1)N2 [Example 401, 7-((3,5-Difluoro-4-((5-(trifluoromethyl)pyridin-3-yl)oxy)benzyl)oxy)-2′,3′,5′,6′-tetrahydro-1H-spiro[imidazo[1,2-c]pyrimidine-2,4′-pyran]-5(3H)-one] | 0.631 | ≤ 100
[2H]C1([2H])C2CN(S(C)(=O)=O)CCN2c2cc(OCc3ccc(F)c(C#N)c3)nc(=O)n21 (stereo not shown) [Example E287, 5-(((11,11-Dideutero-2-(methylsulfonyl)-9-oxo-2,3,4,9,11,11a-hexahydro-1H-pyrazino[1′,2′:3,4]imidazo[1,2-c]pyrimidin-7-yl)oxy)methyl)-2-fluorobenzonitrile] | ≤ 10000 | ≤ 100
N#Cc1cc(COc2cc3n(c(=O)n2)CC2CN(C(=O)C4CCC4)CCN32)ccc1F (stereo not shown) [Example E302, 5-(((2-(Cyclobutanecarbonyl)-9-oxo-2,3,4,9,11,11a-hexahydro-1H-pyrazino[1′,2′:3,4]imidazo[1,2-c]pyrimidin-7-yl)oxy)methyl)-2-fluorobenzonitrile] | ≤ 10000 | ≤ 100
N#Cc1cc(COc2cc3n(c(=O)n2)CC2CNCCN32)ccc1F (stereo not shown) [Example E266, 2-Fluoro-5-(((9-oxo-2,3,4,9,11,11a-hexahydro-1H-pyrazino[1′,2′:3,4]imidazo[1,2-c]pyrimidin-7-yl)oxy)methyl)benzonitrile] | ≤ 100 | ≤ 100
CS(=O)(=O)N1CCN2c3cc(OCc4ccc(F)c(C#N)c4)nc(=O)n3CC2C1 (stereo not shown) [Example E286, 2-Fluoro-5-(((2-(methylsulfonyl)-9-oxo-2,3,4,9,11,11a-hexahydro-1H-pyrazino[1′,2′:3,4]imidazo[1,2-c]pyrimidin-7-yl)oxy)methyl)benzonitrile hydrochloride] | ≤ 10000 | ≤ 100
O=c1nc(OCc2ccc(F)c(F)c2)cc2n1CC1(CCOCC1)N2 [Example 402, 7-((3,4-Difluorobenzyl)oxy)-2′,3′,5′,6′-tetrahydro-1H-spiro[imidazo[1,2-c]pyrimidine-2,4′-pyran]-5(3H)-one] | ≤ 10000 | ≤ 100
CCC(=O)N1CCN2c3cc(OCc4ccc(F)c(C#N)c4)nc(=O)n3CC2C1 (stereo not shown) [Example E289, 2-Fluoro-5-(((9-oxo-2-propionyl-2,3,4,9,11,11a-hexahydro-1H-pyrazino[1′,2′:3,4]imidazo[1,2-c]pyrimidin-7-yl)oxy)methyl)benzonitrile 2,2,2-trifluoroacetate] | ≤ 10000 | ≤ 100
CCCN1CCN2c3cc(OCc4ccc(F)c(F)c4)nc(=O)n3CC2C1 (stereo not shown) [Example E304, 7-((3,4-Difluorobenzyl)oxy)-2-propyl-3,4,11,11a-tetrahydro-1H-pyrazino[1′,2′:3,4]imidazo[1,2-c]pyrimidin-9(2H)-one] | ≤ 10000 | ≤ 100
N#Cc1cc(COc2cc3n(c(=O)n2)CC2CN(C(=O)C4CC4)CCN32)ccc1F (stereo not shown) [Example E292, 5-(((2-(cyclopropanecarbonyl)-9-oxo-2,3,4,9,11,11a-hexahydro-1H-pyrazino[1′,2′:3,4]imidazo[1,2-c]pyrimidin-7-yl)oxy)methyl)-2-fluorobenzonitrile 2,2,2-trifluoroacetate] | ≤ 10000 | ≤ 100
O=C(O)C(F)(F)F.[2H]C1([2H])C2CNCCN2c2cc(OCc3ccc(F)c(C#N)c3)nc(=O)n21 (stereo not shown) [Example E269, 5-(((11,11-Dideutero-9-oxo-2,3,4,9,11,11a-hexahydro-1H-pyrazino[1′,2′:3,4]imidazo [1,2-c]pyrimidin-7-yl)oxy)methyl)-2-fluorobenzonitrile 2,2,2-trifluoroacetate] | ≤ 10000 | ≤ 100

Next, values leading:

IC50 [1] [nM] | IC50 (Lp-PLA2 in human plasma) [nM] | Compound
≤ 10000 | ≤ 100 | NC1(C(=O)N2CCN3c4cc(OCc5ccc(F)c(F)c5)nc(=O)n4CC3C2)CCC1 (stereo not shown) [Example E344, 2-(1-Aminocyclobutanecarbonyl)-7-((3,4-difluorobenzyl)oxy)-3,4,11,11a-tetrahydro-1H-pyrazino[1,2′:3,4]imidazo[1,2-c]pyrimidin-9(2H)-one]
≤ 10000 | ≤ 100 | O=C([C@@H]1C[C@H](F)CN1)N1CCN2c3cc(OCc4ccc(F)c(F)c4)nc(=O)n3CC2C1 (stereo partly drawn) [Example E341, 7-((3,4-Difluorobenzyl)oxy)-2-((2S,4S)-4-fluoropyrrolidin-2-carbonyl)-3,4,11,11a-tetrahydro-1H-pyrazino[1′,2′:3,4]imidazo[1,2-c]pyrimidin-9(2H)-one]
≤ 10000 | ≤ 100 | O=C1CN2c3cc(OCc4ccc(F)c(F)c4)nc(=O)n3CC2CN1 (stereo not shown) [Example E356, 7-((3,4-difluorobenzyl)oxy)-11,11a-dihydro-1H-pyrazino[1′,2′:3,4]imidazo[1,2-c]pyrimidine-3,9(2H,4H)-dione]
≤ 10000 | ≤ 100 | N[C@@H]1C[C@@H]2Cn3c(cc(OCc4cc(F)c(Oc5ccnc(C(F)(F)F)c5)c(F)c4)nc3=O)N2C1 [Example E387, (7R,8aR)-7-Amino-3-((3,5-difluoro-4-((2-(trifluoromethyl)pyridin-4-yl)oxy)benzyl)oxy)-7,8,8a,9-tetrahydropyrrolo[1′,2′:3,4]imidazo[1,2-c]pyrimidin-1(6H)-one]
0.794 | ≤ 100 | O=c1nc(OCc2cc(F)c(Oc3ccnc(C(F)(F)F)c3)c(F)c2)cc2n1CC1(COC1)N2 [Example E395, 7-((3,5-difluoro-4-((2-(trifluoromethyl)pyridin-4-yl)oxy)benzyl)oxy)-1H-spiro[imidazo[1,2-c]pyrimidine-2,3′-oxetan]-5(3H)-one]
≤ 1 | ≤ 100 | O=c1nc(OCc2cc(F)c(Oc3ccnc(C(F)(F)F)c3)c(F)c2)cc2n1CC1CSCCN21 (stereo not shown) [Example E368, 7-((3,5-Difluoro-4-((2-(trifluoromethyl)pyridin-4-yl)oxy)benzyl)oxy) 3,4,11,11a-tetrahydropyrimido[6′,1′:2,3]imidazo[5,1-c][1,4]thiazin-9(1H)-one]
≤ 10000 | ≤ 100 | CN1CC2Cn3c(cc(OCc4ccc(F)c(C#N)c4)nc3=O)N2CC1=O (stereo not shown) [Example E357, 2-Fluoro-5-(((2-methyl-3,9-dioxo-2,3,4,9,11,11a-hexahydro-1H-pyrazino[1,2′:3,4]imidazo[1,2-c]pyrimidin-7-yl)oxy)methyl)benzonitrile]
≤ 10000 | ≤ 100 | N#Cc1cc(COc2cc3n(c(=O)n2)CC2CS(=O)(=O)CCN32)ccc1F (stereo not shown) [Example E367, 5-(((2,2-Dioxido-9-oxo-1,3,4,9,11,11a-hexahydropyrimido[6′,1′:2,3]imidazo[5,1-c][1,4]thiazin-7-yl)oxy)methyl)-2-fluorobenzonitrile]
≤ 10000 | ≤ 100 | CNC1(C(=O)N2CCN3c4cc(OCc5ccc(F)c(F)c5)nc(=O)n4CC3C2)CC1 (stereo not shown) [Example E308, 7-((3,4-Difluorobenzyl)oxy)-2-(1-(methylamino)cyclopropanecarbonyl)-3,4,11,11a-tetrahydro-1H-pyrazino[1′,2′:3,4]imidazo[1,2-c]pyrimidin-9(2H)-one]
≤ 1 | ≤ 100 | N[C@H]1C[C@@H]2Cn3c(cc(OCc4cc(F)c(Oc5ccnc(C(F)(F)F)c5)c(F)c4)nc3=O)N2C1 [Example E388, (7S,8aR)-7-Amino-3-((3,5-difluoro-4-((2-(trifluoromethyl)pyridin-4-yl)oxy)benzyl)oxy)-7,8,8a,9-tetrahydropyrrolo[1′,2′:3,4]imidazo[1,2-c]pyrimidin-1(6H)-one]
≤ 10000 | ≤ 100 | O=C1CN2c3cc(OCc4ccc(F)c(F)c4)nc(=O)n3CC2CN1CC(F)(F)F (stereo not shown) [Example E358, 7-((3,4-Difluorobenzyl)oxy)-2-(2,2,2-trifluoroethyl)-11,11a-dihydro-1Hpyrazino[1′,2′:3,4] imidazo[1,2-c]pyrimidine-3,9(2H,4H)-dione]
